Test results published in ChEMBL document CHEMBL1127966, “Acyclic NK1 antagonists: Replacements for the benzhydryl group” (Bioorg Med Chem Lett, 1994).

What was measured:
Substance-P receptor = Substance-P receptor (Homo sapiens, UniProt P25103); test: Binding affinity of compound was determined from inhibition of [125I]- substance P binding to the hNK1 receptor in CHO cells; type: cell-based
[1] = biological target: T1, Neuromedin-K receptor (Homo sapiens) (UniProt P29371); test: Binding affinity to Tachykinin receptor 3
T1 sequence (whole entry): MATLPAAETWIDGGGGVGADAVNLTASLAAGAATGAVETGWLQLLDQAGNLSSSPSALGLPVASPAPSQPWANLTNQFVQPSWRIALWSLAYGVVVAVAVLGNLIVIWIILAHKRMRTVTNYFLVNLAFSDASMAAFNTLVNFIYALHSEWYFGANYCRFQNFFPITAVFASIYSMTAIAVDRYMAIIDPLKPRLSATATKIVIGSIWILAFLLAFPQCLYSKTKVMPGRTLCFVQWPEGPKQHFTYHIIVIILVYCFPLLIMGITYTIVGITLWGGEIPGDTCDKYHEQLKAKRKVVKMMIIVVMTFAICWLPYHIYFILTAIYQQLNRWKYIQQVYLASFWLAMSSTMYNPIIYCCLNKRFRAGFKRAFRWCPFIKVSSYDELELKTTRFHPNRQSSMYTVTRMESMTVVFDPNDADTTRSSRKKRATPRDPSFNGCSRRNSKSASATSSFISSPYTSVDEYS

[2] = biological target: T2, Substance-K receptor (Homo sapiens) (UniProt P21452); test: Binding affinity to Tachykinin receptor 2
T2 sequence (whole entry): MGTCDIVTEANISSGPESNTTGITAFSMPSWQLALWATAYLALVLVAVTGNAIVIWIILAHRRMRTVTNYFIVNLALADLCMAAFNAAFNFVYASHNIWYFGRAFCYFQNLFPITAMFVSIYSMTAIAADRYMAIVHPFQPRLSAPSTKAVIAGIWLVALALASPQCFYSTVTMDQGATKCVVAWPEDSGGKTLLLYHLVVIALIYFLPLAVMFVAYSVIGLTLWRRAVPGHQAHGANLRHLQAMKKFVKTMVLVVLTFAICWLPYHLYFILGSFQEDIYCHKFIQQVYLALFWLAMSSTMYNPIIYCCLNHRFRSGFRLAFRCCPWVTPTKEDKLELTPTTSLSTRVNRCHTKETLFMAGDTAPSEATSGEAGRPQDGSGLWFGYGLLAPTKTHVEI

Chain of Substance-P receptor (P25103 whole entry): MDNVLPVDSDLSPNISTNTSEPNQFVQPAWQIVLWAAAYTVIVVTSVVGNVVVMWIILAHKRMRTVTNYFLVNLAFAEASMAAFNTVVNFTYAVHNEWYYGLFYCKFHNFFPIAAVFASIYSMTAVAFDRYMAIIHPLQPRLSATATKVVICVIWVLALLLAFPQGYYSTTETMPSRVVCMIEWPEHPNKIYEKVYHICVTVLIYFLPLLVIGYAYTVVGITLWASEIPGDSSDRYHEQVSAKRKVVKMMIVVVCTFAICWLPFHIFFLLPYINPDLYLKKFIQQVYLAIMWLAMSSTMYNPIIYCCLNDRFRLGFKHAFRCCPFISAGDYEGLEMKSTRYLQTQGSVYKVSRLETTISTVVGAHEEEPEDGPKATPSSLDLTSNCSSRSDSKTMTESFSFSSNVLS

| Structure (SMILES) | IC50 (Substance-P receptor) [nM] | Affinity [1] [µM] | Affinity [2] [µM] |
| --- | --- | --- | --- |
| Cc1cc(C)cc(COCC(N)C2c3ccccc3CCc3ccccc32)c1 (centres undefined) | 93 |  |  |
| Cc1cc(C)cc(COCC(N)Cc2ccccc2)c1 (centres undefined) | 483 |  |  |
| Cc1cc(C)cc(COC[C@@H](N)c2ccccc2)c1 | 55 | > 10 | > 10 |
| Cc1cc(C)cc(COCC(N)C(c2ccccc2)c2ccccc2)c1 (centres undefined) | 9.3 |  |  |

Now from value to molecule:

| IC50 (Substance-P receptor) [nM] | Affinity [1] [µM] | Affinity [2] [µM] | Structure (SMILES) |
| --- | --- | --- | --- |
| 80 |  |  | Cc1cc(C)cc(COCC(N)C2c3ccccc3C=Cc3ccccc32)c1 (centres undefined) |
| 1160 |  |  | Cc1cc(C)cc(COCC(N)Cc2cccc3ccccc23)c1 (centres undefined) |
| 2500 |  |  | Cc1cc(C)cc(COC[C@H](N)c2ccccc2)c1 |
